The text below walks through data of patent US9315490B2, “2,5-substituted pyrimidines” (Grünenthal GmbH, priority 2014, dated 2016).

Molecules are shown by their SMILES.

In the first assay the target is T1, human PDE4B1 (Homo sapiens, UniProt Q07343).
T1 construct: host or cells: Sf9 cells
T1 sequence (Q07343 whole entry): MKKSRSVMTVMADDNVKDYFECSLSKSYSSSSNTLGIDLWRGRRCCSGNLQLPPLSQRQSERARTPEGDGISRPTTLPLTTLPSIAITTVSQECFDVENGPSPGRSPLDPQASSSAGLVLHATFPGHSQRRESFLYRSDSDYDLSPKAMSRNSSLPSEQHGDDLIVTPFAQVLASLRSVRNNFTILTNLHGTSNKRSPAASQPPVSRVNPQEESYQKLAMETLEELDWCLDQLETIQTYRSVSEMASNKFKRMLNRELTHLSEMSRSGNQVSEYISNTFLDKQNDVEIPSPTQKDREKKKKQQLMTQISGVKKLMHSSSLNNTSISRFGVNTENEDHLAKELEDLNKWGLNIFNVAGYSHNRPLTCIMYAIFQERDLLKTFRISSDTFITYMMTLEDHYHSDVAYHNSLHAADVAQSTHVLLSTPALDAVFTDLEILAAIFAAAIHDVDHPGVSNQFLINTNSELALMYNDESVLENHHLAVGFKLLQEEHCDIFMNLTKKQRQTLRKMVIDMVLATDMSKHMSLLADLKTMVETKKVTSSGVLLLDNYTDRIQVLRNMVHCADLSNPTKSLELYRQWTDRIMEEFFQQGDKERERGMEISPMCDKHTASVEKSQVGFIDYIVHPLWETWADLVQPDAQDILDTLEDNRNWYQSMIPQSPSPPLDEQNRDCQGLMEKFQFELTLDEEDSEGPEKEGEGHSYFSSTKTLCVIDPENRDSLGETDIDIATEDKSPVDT
Kind of assay: TR-FRET assay using the LANCE Ultra cAMP kit to determine the activity of hPDE4B1. The settings on record: test concentration 1 μM, read-out: Inhibition in % (inhibition of PDE4B). The format is biochemical. Summed up: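 Sf9-expressed recombinant human PDE4B1 (0.96 U) hydrolyses 500 nM cAMP for 30 minutes at room temperature in 50 mM Tris-HCl, 50 mM MgCl2, 5 mM DTT, pH 8.5. The reaction is stopped with IBMX, and residual cAMP is measured by TR-FRET (665/620 ratio). IC50 comes from ten concentrations.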
In general, inhibition refers to the relative decrease from the control value, in per cent. In the case of `CN(C)C(=O)c1ccc2c([S+](C)[O-])cn(-c3ncc(-c4ccccn4)cn3)c2c1` (centres unmarked) [Example 313, N,N-Dimethyl-3-(methylsulfinyl)-1-(5-(pyridin-2-yl)pyrimidin-2-yl)-1H-indole-6-carboxamide], the inhibition at 1 µM worked out at 92%. On the same count and under the same terms, next, `CC(C)c1ccnc(-c2cnc(-n3cc(S(C)(=O)=O)c4ccc(C(=O)N5CCOCC5)cc43)nc2)c1` [Example 324, (1-(5-(4-Isopropylpyridin-2-yl)pyrimidin-2-yl)-3-(methylsulfonyl)-1H-indol-6-yl)(morpholino)methanone]: 76%; `CCOc1ccc(F)c(-c2cnc(-n3cc(S(C)(=O)=O)c4ccc(C(=O)N5CCOCC5)cc43)nc2)c1` [Example 326, (1-(5-(5-Ethoxy-2-fluorophenyl)pyrimidin-2-yl)-3-(methylsulfonyl)-1H-indol-6-yl)(morpholino)methanone]: 98%.

The same assay, now with this note: test concentration 10 μM (marked in cell), read-out: Inhibition in % (inhibition of PDE4B).
Consider `CS(=O)(=O)c1cn(-c2ncc(-c3cc(Cl)ccn3)cn2)c2cc(C(=O)N3CCOCC3)ccc12` [Example 312, (1-(5-(4-Chloropyridin-2-yl)pyrimidin-2-yl)-3-(methylsulfonyl)-1H-indol-6-yl)(morpholino)methanone], for which the inhibition at 10 µM turned out to be 93%. On the same count and under the same terms, next, `Cc1cccc(-c2cnc(-n3cc([S+](C)[O-])c4ccc(C(=O)N(C)C)cc43)nc2)n1` (centres unmarked) [Example 314, N,N-Dimethyl-1-(5-(6-methylpyridin-2-yl)pyrimidin-2-yl)-3-(methylsulfinyl)-1H-indole-6-carboxamide]: 98%; `Cc1ccc(F)c(-c2cnc(-n3cc([S+](C)[O-])c4ccc(C(=O)N(C)CCO)cc43)nc2)c1` (centres unmarked) [Example 315, 1-(5-(2-Fluoro-5-methylphenyl)pyrimidin-2-yl)-N-(2-hydroxyethyl)-N-methyl-3-(methylsulfinyl)-1H-indole-6-carboxamide]: 97%; `CCOc1ccc(F)c(-c2cnc(-n3cc([S+](C)[O-])c4ccc(C(=O)N(C)CCO)cc43)nc2)c1` (centres unmarked) [Example 316, 1-(5-(5-Ethoxy-2-fluorophenyl)pyrimidin-2-yl)-N-(2-hydroxyethyl)-N-methyl-3-(methylsulfinyl)-1H-indole-6-carboxamide]: 98%. Same read-out and setting: under `Cc1ccnc(-c2cnc(-n3cc([S+](C)[O-])c4ccc(C(=O)N(C)CCO)cc43)nc2)c1` (centres unmarked) [Example 317, N-(2-Hydroxyethyl)-N-methyl-1-(5-(4-methylpyridin-2-yl)pyrimidin-2-yl)-3-(methylsulfinyl)-1H-indole-6-carboxamide] stands 87%; under `Cc1ccnc(-c2cnc(-n3cc(C(C)O)c4ccc(C(=O)N5CCOCC5)cc43)nc2)c1` (centres unmarked) [Example 318, (3-(1-Hydroxyethyl)-1-(5-(4-methylpyridin-2-yl)pyrimidin-2-yl)-1H-indol-6-yl)(morpholino)methanone], 96%.

Take `CCOc1ccc(F)c(-c2cnc(-n3cc(C(C)O)c4ccc(C(=O)N5CCOCC5)cc43)nc2)c1` (centres unmarked) [Example 319, (1-(5-(5-Ethoxy-2-fluorophenyl)pyrimidin-2-yl)-3-(1-hydroxyethyl)-1H-indol-6-yl)(morpholino)methanone]: the inhibition at 10 µM worked out at 99%. Still for that read-out and setting: next, `Cc1ccc(F)c(-c2cnc(-n3cc(C(C)O)c4ccc(C(=O)N5CCOCC5)cc43)nc2)c1` (centres unmarked) [Example 320]: 109%; `Cc1ccc(F)c(-c2cnc(-n3cc(C(C)O)c4ccc(C(=O)N5CC[C@@H](N)C5)cc43)nc2)c1` (stereo partly drawn) [Example 321, ((R)-3-Aminopyrrolidin-1-yl)(1-(5-(2-fluoro-5-methylphenyl)pyrimidin-2-yl)-3-(1-hydroxyethyl)-1H-indol-6-yl)methanone]: 143%; `Cc1ccc(F)c(-c2cnc(-n3cc(C(C)O)c4ccc(C(=O)N(C)C)cc43)nc2)c1` (centres unmarked) [Example 322, 1-(5-(2-Fluoro-5-methylphenyl)pyrimidin-2-yl)-3-(1-hydroxyethyl)-N,N-dimethyl-1H-indole-6-carboxamide]: 100%. Still for that read-out and setting: next, `Cc1ccc(F)c(-c2cnc(-n3cc(C(C)O)c4ccc(C(=O)N(C)CC(N)=O)cc43)nc2)c1` (centres unmarked) [Example 323, N-(2-Amino-2-oxoethyl)-1-(5-(2-fluoro-5-methylphenyl)pyrimidin-2-yl)-3-(1-hydroxyethyl)-N-methyl-1H-indole-6-carboxamide]: 103%; `CCc1ccnc(-c2cnc(-n3cc(S(C)(=O)=O)c4ccc(C(=O)N5CCOCC5)cc43)nc2)c1` [Example 325, (1-(5-(4-Ethylpyridin-2-yl)pyrimidin-2-yl)-3-(methylsulfonyl)-1H-indol-6-yl)(morpholino)methanone]: 91%; `CS(=O)(=O)c1cn(-c2ncc(-c3cc(C4CC4)ccn3)cn2)c2cc(C(=O)N3CCOCC3)ccc12` [Example 327, (1-(5-(4-Cyclopropylpyridin-2-yl)pyrimidin-2-yl)-3-(methylsulfonyl)-1H-indol-6-yl)(morpholino)methanone]: 90%.

Regarding `Cc1ccc(F)c(-c2cnc(-n3cc(S(C)(=O)=O)c4ccc(C(=O)N(C)CC(N)=O)cc43)nc2)c1` [Example 328, N-(2-Amino-2-oxoethyl)-1-(5-(2-fluoro-5-methylphenyl)pyrimidin-2-yl)-N-methyl-3-(methylsulfonyl)-1H-indole-6-carboxamide], the inhibition at 10 µM was found to be 89%. Still for that read-out and setting: under `CCc1ccc(F)c(-c2cnc(-n3cc(C(C)O)c4ccc(C(=O)N(C)CC(N)=O)cc43)nc2)c1` (centres unmarked) [Example 331, N-(2-Amino-2-oxoethyl)-1-(5-(5-ethyl-2-fluorophenyl)pyrimidin-2-yl)-3-(1-hydroxyethyl)-N-methyl-1H-indole-6-carboxamide] stands 109%; under `Cc1ccnc(-c2cnc(-n3cc(C(C)O)c4ccc(C(=O)N(C)CC(N)=O)cc43)nc2)c1` (centres unmarked) [Example 332, N-(2-Amino-2-oxoethyl)-3-(1-hydroxyethyl)-N-methyl-1-(5-(4-methylpyridin-2-yl)pyrimidin-2-yl)-1H-indole-6-carboxamide], 82%; under `Cc1ccnc(-c2cnc(-n3cc([S+](C)[O-])c4ccc(C(=O)N5CC[C@@H](N)C5)cc43)nc2)c1` (stereo partly drawn) [Example 336, ((R)-3-Aminopyrrolidin-1-yl)(1-(5-(4-methylpyridin-2-yl)pyrimidin-2-yl)-3-(methylsulfinyl)-1H-indol-6-yl)methanone], 64%. In the case of `C[S+]([O-])c1cn(-c2ncc(-c3cc(C4CC4)ccn3)cn2)c2cc(C(=O)N3CCCC3)ccc12` (centres unmarked) [Example 341, (1-(5-(4-Cyclopropylpyridin-2-yl)pyrimidin-2-yl)-3-(methylsulfinyl)-1H-indol-6-yl)(pyrrolidin-1-yl)methanone], the inhibition at 10 µM worked out at 108%. Same read-out and setting: under `COc1ccnc(-c2cnc(-n3cc([S+](C)[O-])c4ccc(C(=O)N5CCCC5)cc43)nc2)c1` (centres unmarked) [Example 342, (1-(5-(4-Methoxypyridin-2-yl)pyrimidin-2-yl)-3-(methylsulfinyl)-1H-indol-6-yl)(pyrrolidin-1-yl)methanone] stands 113%. The same measure, in the same setting: under `CCOc1ccnc(-c2cnc(-n3cc([S+](C)[O-])c4ccc(C(=O)N5CCCC5)cc43)nc2)c1` (centres unmarked) [Example 343, (1-(5-(4-Ethoxypyridin-2-yl)pyrimidin-2-yl)-3-(methylsulfinyl)-1H-indol-6-yl)(pyrrolidin-1-yl)methanone] stands 100%.
